# Experimental data taken from publication PMC10884759, “Decreased pyruvate dehydrogenase activity in Tafazzin-deficient cells is caused by dysregulation of pyruvate dehydrogenase phosphatase 1 (PDP1)” (The Journal of Biological Chemistry, 2024).
# Target: T1, PDP1 (PDH phosphatase 1; PDP1-His6) (Mus musculus, UniProt Q3UV70)
# T1 construct: mature polypeptide (transit peptide removed; forward primer encodes ASTPQKFY after start Met), C-terminal His6 from pET-28a, E. coli BL21(DE3) with pGro7 chaperones, Ni-NTA purified
# T1 sequence (Q3UV70 72-538): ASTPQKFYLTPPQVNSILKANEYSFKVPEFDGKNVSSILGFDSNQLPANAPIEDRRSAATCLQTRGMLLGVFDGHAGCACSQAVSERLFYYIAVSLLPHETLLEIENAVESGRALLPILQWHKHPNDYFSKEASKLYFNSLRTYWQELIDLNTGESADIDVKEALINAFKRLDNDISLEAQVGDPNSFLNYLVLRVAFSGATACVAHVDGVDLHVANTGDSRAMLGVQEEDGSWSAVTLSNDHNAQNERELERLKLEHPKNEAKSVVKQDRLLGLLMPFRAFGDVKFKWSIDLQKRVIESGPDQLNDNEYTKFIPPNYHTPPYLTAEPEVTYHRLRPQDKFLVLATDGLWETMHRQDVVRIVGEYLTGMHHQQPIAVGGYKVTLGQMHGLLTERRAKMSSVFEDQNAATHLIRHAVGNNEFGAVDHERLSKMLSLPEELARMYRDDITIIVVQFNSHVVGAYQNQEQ
# Experiment: protein-lipid overlay on PVDF, anti-His immunoblot
# Type: binding
# Settings: lipid spotted at 31.25-500 μM, 1 μl; pH 7.5, 4 °C overnight, 3% BSA
smiles,measurement,value
CCCCC/C=C\C/C=C\CCCCCCCC(=O)OC[C@H](COP(=O)(O)OCC(O)COP(=O)(O)OC[C@@H](COC(=O)CCCCCCC/C=C\C/C=C\CCCCC)OC(=O)CCCCCCC/C=C\C/C=C\CCCCC)OC(=O)CCCCCCC/C=C\C/C=C\CCCCC (some centres unmarked) [TLCL],"protein-lipid overlay on PVDF, anti-His immunoblot",only PDP1 was shown to bind with TLCL (Fig. 2B)
CCCCCCCC/C=C\CCCCCCCC(=O)OC[C@H](COP(=O)(O)O)OC(=O)CCCCCCC/C=C\CCCCCCCC [phosphatidic acid],"protein-lipid overlay on PVDF, anti-His immunoblot",PA is also bound to PDP1 (and to E1)
